Reference: US10023565B2, “N,N′ substituted piperidinamine compounds, and preparation method and usage thereof” (Institute of Pharmacology and Toxicology Academy of …, priority 2013, dated 2018)

Experiments:
[1] = target: T1, Hsp70 (Homo sapiens, UniProt P0DMV8); assay: Measurement of affinity between compounds and Hsp70 (SPR, BIACORE T100); format: binding; settings: for Kd: steady state model, 25° C., read-out: KD (binding constant between the compounds and Hsp70)
T1 construct: purchased Enzo Life Sciences ADI-ESP-550-D
Method: Instrument for measuring the affinity between Example compounds and Hsp70 is BIACORE T100 Biomolecular Interaction Analysis (GE, USA), and the positive control drug is VER-155008 that is well-recognized as Hsp70 inhibitor now, and, on the basis of the measured results, according to binding characteristics between the compounds and protein, the binding constant (equilibrium dissociation constant KD) between drugs and protein is calculated by selecting steady state model with the formula: Conc*Rmax/[conc+KD]+offset.
1. Instrument: BIACORE T100 Biomolecular Interaction Analysis (GE, USA)
2. Reagents: PBS Buffer (×10), P20, CM5 chip (GE, USA), Hsp70 (human, ADI-ESP-550-D), manufactured by Enzo Life Sciences.
30 mM mother liquor of the compound was formulated with DMSO, which was diluted to 2 mM application solution with DMSO before use. 5 μl of the application solution was taken and diluted with 95 μl 1.05×PBS to 100 μM, and then diluted in turn with PBS containing 5% DMSO to […]. PBS containing 5% DMSO was used as solvent control.
Hsp70 protein was diluted with 10 mmol/L sodium acetate buffer solution (pH 5.0) to 30 μg/ml, and coupled directly on a hydrophilic carboxylmethyl dextran matrix sensor chip M5 through normalized primary amine coupling reaction, RU=11209, and then the chip was balanced for 1-2 h with PBS Buffer at […].
At a flow rate of […], with PBS containing 5% DMSO as mobile phase, at 25° C., the compound was introduced in the sequence of 0.003, 0.01, 0.03, 0.1, 0.3, 1, 3 and 10 μM, with binding time of 90 seconds, and dissociation time of 120 seconds.
According to binding characteristics between the compounds and protein, the binding constant (equilibrium dissociation constant KD) between drugs and protein was calculated by selecting steady state model with the formula: Conc*Rmax/[conc+KD]+offset.

[2] = test system: BT474; assay: Antitumor bioactivity evaluation, breast cancer cells (ATPlite); format: cell-based; settings: Homo sapiens, BT-474; test sample 5 μM, 72 hours; read-out: Inhibitory Rate % BT474
How it was run: (§1)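 Cells seeded at 5000/well, allowed to adhere 24 h at 37° C, then treated with test compound at final 5 μM, alone or combined with lapatinib at final 1 μM, for 72 h at 37° C. ATPlite luminescence read; survival rate = treated RLU/control RLU × 100%.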

[3] = test system: MDA-MB-361; assay: as above; format: cell-based; settings: Homo sapiens, test sample 5 μM, 72 hours, read-out: Inhibitory Rate % MDA-MB-361
How it was run: as §1

[4] = test system: MDA-MB-453; assay: as above; format: cell-based; settings: Homo sapiens, test sample 5 μM, 72 hours, read-out: Inhibitory Rate % MDA-MB-453
How it was run: as §1

[5] = test system: SK-BR3; assay: as above; format: cell-based; settings: Homo sapiens, SK-BR-3; test sample 5 μM, 72 hours; read-out: Inhibitory Rate % SK-BR3
How it was run: as §1

[6] = test system: SK/Lap^R1.0; assay: as above; format: cell-based; settings: Homo sapiens; test sample 5 μM, 72 hours; read-out: Inhibitory Rate % SKLap^R1.0
How it was run: as §1

[7] = test system: BT/Lap^R1.0; assay: as above; format: cell-based, human; settings: Homo sapiens; test sample 5 μM, 72 hours; read-out: Inhibitory Rate % BT/Lap^R1.0
How it was run: as §1

T1 sequence (P0DMV8 whole entry): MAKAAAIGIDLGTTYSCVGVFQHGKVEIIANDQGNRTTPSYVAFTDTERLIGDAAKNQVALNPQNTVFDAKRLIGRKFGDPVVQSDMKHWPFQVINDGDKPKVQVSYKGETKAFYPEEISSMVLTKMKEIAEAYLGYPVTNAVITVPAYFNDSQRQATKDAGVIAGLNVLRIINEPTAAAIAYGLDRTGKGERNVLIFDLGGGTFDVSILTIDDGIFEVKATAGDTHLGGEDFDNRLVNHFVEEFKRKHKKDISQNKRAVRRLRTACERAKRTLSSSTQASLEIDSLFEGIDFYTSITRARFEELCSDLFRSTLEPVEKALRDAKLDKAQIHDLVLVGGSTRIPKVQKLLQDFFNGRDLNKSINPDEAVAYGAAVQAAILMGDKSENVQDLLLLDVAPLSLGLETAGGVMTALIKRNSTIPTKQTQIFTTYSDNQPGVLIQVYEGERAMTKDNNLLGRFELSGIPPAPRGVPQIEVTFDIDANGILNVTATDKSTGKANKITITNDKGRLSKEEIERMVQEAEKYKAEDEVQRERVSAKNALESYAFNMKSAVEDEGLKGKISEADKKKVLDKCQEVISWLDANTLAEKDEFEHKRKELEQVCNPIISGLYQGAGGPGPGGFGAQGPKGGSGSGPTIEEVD

| Structure (SMILES) | Kd [1] [nM] | KD compared with positive control drug VER-155008 [1] | inhibition at 5 µM [2] [%] | inhibition at 5 µM [3] [%] | inhibition at 5 µM [4] [%] | inhibition at 5 µM [5] [%] | inhibition at 5 µM [6] [%] | inhibition at 5 µM [7] [%] |
| --- | --- | --- | --- | --- | --- | --- | --- | --- |
| COc1nccc(N2CCC(N(C)Cc3ccc(F)cc3)CC2)n1 [Example 57, N-methyl-N-(4-fluorobenzyl)-N-[1-(2-methoxypyrimidin-4-yl)piperidin-4-yl]amine] | 281 | KD values equivalent to that of the positive control drug VER-155008 | 12.5 | 12.8 | 40.4 | 14.4 | 9 | 14.6 |
| CN(Cc1ccccc1C#N)C1CCN(Cc2cnc(Cl)s2)CC1 [Example 14, N-methyl-N-(2-cyanobenzyl)-N-{1-[(2-chlorothiazol-5-yl)methyl]piperidin-4-yl}amine] | 245 | KD values equivalent to that of the positive control drug VER-155008 | -4.1 | -8.5 | 8.2 | 7.3 | 4.2 | 4 |
| CSc1ncc(CN2CCC(N(C)Cc3cccc(F)c3)CC2)s1 [Example 27, N-methyl-N-(3-fluorobenzyl)-N-{[1-(2-methylthiothiazol-5-yl)methyl]piperidin-4-yl}amine] |  |  | 26.3 | 31.7 | 44.2 | 19.5 | 2.1 | 19.8 |

Further compounds by falling Kd [1], results first:

| Kd [1] [nM] | Structure (SMILES) | KD compared with positive control drug VER-155008 [1] | inhibition at 5 µM [2] [%] | inhibition at 5 µM [3] [%] | inhibition at 5 µM [4] [%] | inhibition at 5 µM [5] [%] | inhibition at 5 µM [6] [%] | inhibition at 5 µM [7] [%] |
| --- | --- | --- | --- | --- | --- | --- | --- | --- |
| 204 | CSc1nccc(N2CCC(N(C)Cc3ccc(F)cc3)CC2)n1 [Example 35, N-methyl-N-(4-fluorobenzyl)-N-[1-(2-methylthiopyrimidin-4-yl)piperidin-4-yl]amine] | KD values equivalent to that of the positive control drug VER-155008 | 40.5 | 46 | 82.3 | 31.5 | 30.9 | 44.7 |
| 200 | Fc1ccc(CNC2CCN(Cc3cnc(Cl)s3)CC2)cc1 [Example 12, N-(4-fluorobenzyl)-N-{1-[(2-chlorothiazol-5-yl)methyl]piperidin-4-yl}amine] | KD values equivalent to that of the positive control drug VER-155008 | 5.4 | 4.8 | 0.1 | 22.4 | 4.4 | 9.1 |
